Data reported in patent US8362065B2, “Carbazole carboxamide compounds useful as kinase inhibitors” (Bristol-Myers Squibb Company, priority 2008, dated 2013).

How the values were obtained:
[1] = tested on: Ramos RA1 B cells; experiment: Ramos FLIPR Assay; format: cell-based; conditions: goat anti-human IgM 2.5 μg/mL, peak intracellular calcium, read-out: IC50 for Inhibition of Ramos FLIPR assay
[2] = target: T1, human recombinant Btk (Homo sapiens, UniProt Q06187); experiment: Human Recombinant Btk Enzyme Assay; format: biochemical; conditions: human recombinant Btk 1 nM, ATP 20 μM, 60 min at room temperature; read-out: IC50 for Inhibition of Btk
T1 construct: purchased Invitrogen Corporation
T1 sequence (Q06187 whole entry): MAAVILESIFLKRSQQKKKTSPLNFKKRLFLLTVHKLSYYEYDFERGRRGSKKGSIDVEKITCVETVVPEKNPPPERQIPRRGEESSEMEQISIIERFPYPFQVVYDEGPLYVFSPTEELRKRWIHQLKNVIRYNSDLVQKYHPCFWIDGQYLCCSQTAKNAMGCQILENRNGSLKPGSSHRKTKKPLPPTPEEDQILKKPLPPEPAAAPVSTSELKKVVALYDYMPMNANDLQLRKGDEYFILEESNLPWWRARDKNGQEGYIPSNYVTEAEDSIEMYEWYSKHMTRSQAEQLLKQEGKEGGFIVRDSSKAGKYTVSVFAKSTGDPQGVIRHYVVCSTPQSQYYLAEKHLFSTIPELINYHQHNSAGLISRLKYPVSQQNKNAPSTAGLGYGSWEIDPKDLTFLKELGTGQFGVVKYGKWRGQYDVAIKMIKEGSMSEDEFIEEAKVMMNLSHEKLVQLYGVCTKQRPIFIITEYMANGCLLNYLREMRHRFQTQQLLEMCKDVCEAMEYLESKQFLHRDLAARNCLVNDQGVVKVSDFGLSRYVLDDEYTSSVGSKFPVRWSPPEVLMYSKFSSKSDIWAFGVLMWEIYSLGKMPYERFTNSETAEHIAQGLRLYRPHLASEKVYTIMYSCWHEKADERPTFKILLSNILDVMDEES

[3] = tested on: anti-KLH IgG response in BALB/c mice; experiment: KLH Antigen Challenge and Antibody Measurement; format: in vivo, mouse; conditions: female BALB/c mice, serum 14 days post-immunization
Procedure: KLH Antigen Challenge and Antibody Measurement
Female BALB/c mice (6-8 weeks old) were immunized intraperitoneally (IP) with 250 μg keyhole limit hemocyanin (KLH) (Pierce, Rockford, Ill.) in phosphate-buffered saline (PBS). Mice in appropriate groups were dosed as indicated. Blood was collected 14 days post-immunization, serum was separated and analyzed for anti-KLH IgG titers by ELISA. Briefly, 96 well plates were coated with KLH in PBS, blocked, and serial dilutions of test serum samples were added.

Q: With Cc1c(-c2ccc(C(N)=O)c3[nH]c4cc(NC(=O)C5CC5)ccc4c23)cccc1N1Cc2ccccc2C1=O [Example 66-39] as the molecule, how does the IC50 [1] read?
A: 0.26 µM

Q: For COc1ccc2c(c1)CN(c1cccc(-c3ccc(C(N)=O)c4[nH]c5cc(C(C)(C)O)ccc5c34)c1C)C2=O [Example 76-32, 7-(2-hydroxypropan-2-yl)-4-(3-(5-methoxy-1-oxoisoindolin-2-yl)-2-methylphenyl)-9H-carbazole-1-carboxamide], which IC50 [2] is on record?
A: 0.0032 µM

Q: What about the IC50 [1] of the same molecule?
A: 0.038 µM

Q: What does the source list for COC(CO)c1ccc2c(c1)[nH]c1c(C(N)=O)ccc(-c3cccc(N4Cc5ccc(C)cc5C4=O)c3C)c12 (racemic) [Example 75-3]?
A: IC50 [2]: 0.0011 µM; IC50 [1]: 0.016 µM

Q: For Cc1ccc2ncn(-c3cccc(-c4ccc(C(N)=O)c5[nH]c6c(c45)CCC(C(C)(C)O)C6)c3C)c(=O)c2c1 (centres unmarked) [Example 76-43], which IC50 [1] is on record?
A: 0.26 µM

Q: How did the IC50 [1] turn out when Cc1c(/N=C2\OCc3ccncc32)cccc1-c1ccc(C(N)=O)c2[nH]c3c(c12)CCC(C(C)(C)O)C3 (centres unmarked) [Example 76-7] was run?
A: 0.24 µM

Q: How did the IC50 [1] turn out when Cc1ccc2c(c1)CN(c1cncc(-c3ccc(C(N)=O)c4[nH]c5cc(N6CCOC6=O)ccc5c34)c1C)C2=O [Example 66-40] was run?
A: 0.27 µM

Q: For Cc1c(/N=C2\OCc3ccncc32)cccc1-c1ccc(C(N)=O)c2[nH]c3cc(C(C)(C)OCCO)ccc3c12 [Example 76-49], which IC50 [1] is on record?
A: 0.014 µM

Q: With Cc1c(Nc2ncnc3cc(Cl)ccc23)cccc1-c1ccc(C(N)=O)c2[nH]c3cc(C(=O)N4CCN(C)CC4)ccc3c12 [Example 11-6, 4-(3-(7-chloroquinazolin-4-ylamino)-2-methylphenyl)-7-(4-methylpiperazine-1-carbonyl)-9H-carbazole-1-carboxamide] as the molecule, how does the IC50 [1] read?
A: 0.28 µM

Q: Which results are given for Cc1c(-c2ccc(C(N)=O)c3[nH]c4cc(C(C)(C)O)ccc4c23)cccc1N1Cc2ccc(F)cc2C1=O [Example 76-15]?
A: IC50 [2]: 0.0024 µM; inhibited the anti-KLH IgG response ([3]; 10 mg/kg twice daily): 29%; inhibited the anti-KLH IgG response ([3]; 30 mg/kg twice daily): 56%; IC50 [1]: 0.048 µM

Q: For Cc1ccc(NC(=O)Nc2cccc(-c3ccc(C(N)=O)c4[nH]c5cc(C(=O)N6CCN(C)CC6)ccc5c34)c2C)cc1C [Example 8-1, 4-(3-(3-(3,4-dimethylphenyl)ureido)-2-methylphenyl)-7-(4-methylpiperazine-1-carbonyl)-9H-carbazole-1-carboxamide], which IC50 [1] is on record?
A: 5.4 µM

Q: Cc1c(-c2ccc(C(N)=O)c3[nH]c4cc(N5CCOC5=O)ccc4c23)cccc1N1Cc2ccccc2C1=O [Example 66-10] was tested. Which IC50 [1] did it give?
A: 0.27 µM

Q: Which IC50 [2] does the source give for CC(=O)NCc1ccc2c(c1)[nH]c1c(C(N)=O)ccc(-c3cccc(-n4cnc5ccc(F)cc5c4=O)c3C)c12 [Example 38-3, 7-(acetamidomethyl)-4-(3-(6-fluoro-4-oxoquinazolin-3(4H)-yl)-2-methylphenyl)-9H-carbazole-1-carboxamide] here?
A: 0.0014 µM

Q: And the IC50 [1]?
A: 0.023 µM

Q: For Cc1c(-c2ccc(C(N)=O)c3[nH]c4cc(N5CCNC5=O)ccc4c23)cccc1N1Cc2cc(F)ccc2C1=O [Example 66-14], which IC50 [1] is on record?
A: 0.26 µM

Q: What does the source list for Cc1c(-c2ccc(C(N)=O)c3[nH]c4cc(C(C)(C)O)ccc4c23)cccc1-n1cnc2c(F)cccc2c1=O [Example 76-51]?
A: IC50 [2]: 0.0014 µM; IC50 [1]: 0.017 µM

Q: For Cc1c(-c2ccc(C(N)=O)c3[nH]c4cc(C(C)(C)O)ccc4c23)cccc1-n1cnc2cccc(F)c2c1=O [Example 76-26], which IC50 [1] is on record?
A: 0.018 µM

Q: Cc1cn2ccn(-c3cccc(-c4ccc(C(N)=O)c5[nH]c6cc(NC(C)C)ccc6c45)c3C)c(=O)c2n1 [Example 80-2] was tested. Which IC50 [1] did it give?
A: 0.016 µM

Q: Cc1ccc2c(c1)CN(c1cccc(-c3ccc(C(N)=O)c4[nH]c5cc(N6CCCC6=O)ccc5c34)c1C)C2=O [Example 66-5] was tested. Which IC50 [1] did it give?
A: 0.26 µM

Q: Which IC50 [1] does the source give for Cc1c(Nc2ncnc3c(F)cccc23)cccc1-c1ccc(C(N)=O)c2[nH]c3cc(C(C)(C)O)ccc3c12 [Example 81-1, 4-(3-(8-fluoroquinazolin-4-ylamino)-2-methylphenyl)-7-(2-hydroxypropan-2-yl)-9H-carbazole-1-carboxamide] here?
A: 0.015 µM

Q: With Cc1c(-c2ccc(C(N)=O)c3[nH]c4cc(N5CCCC5=O)ccc4c23)cccc1N1Cc2ccccc2C1=O [Example 62-1, 4-(2-methyl-3-(1-oxoisoindolin-2-yl)phenyl)-7-(2-oxopyrrolidin-1-yl)-9H-carbazole-1-carboxamide] as the molecule, how does the IC50 [1] read?
A: 0.25 µM

Q: How did the IC50 [2] turn out when COC1=CC(=O)N(c2cccc(-c3ccc(C(N)=O)c4[nH]c5cc(C(C)(C)O)ccc5c34)c2C)C1 [Example 82-1, 7-(2-hydroxypropan-2-yl)-4-(3-(4-methoxy-2-oxo-2,5-dihydro-1H-pyrrol-1-yl)-2-methylphenyl)-9H-carbazole-1-carboxamide] was run?
A: 0.0019 µM

Q: And the IC50 [1]?
A: 0.017 µM

Q: How did the IC50 [2] turn out when CCOc1ccc(F)c(-c2ccc(C(N)=O)c3[nH]c4cc(C(=O)N5CCN(C)CC5)ccc4c23)c1 [Example 3-39] was run?
A: 0.016 µM

Q: How did the IC50 [2] turn out when Cc1c(-c2ccc(C(N)=O)c3[nH]c4cc(C(C)(C)O)ccc4c23)cccc1-n1ccn2ccnc2c1=O [Example 76-2, 7-(2-hydroxypropan-2-yl)-4-(2-methyl-3-(8-oxoimidazo[1,2-a]pyrazin-7(8 H)-yl)phenyl)-9H-carbazole-1-carboxamide] was run?
A: 0.0013 µM

Q: “7-(1,2-dihydroxyethyl)-4-(2-methyl-3-(6-methyl-1-oxoisoindolin-2-yl)phenyl)-9H-carbazole-1-carboxamide^[b] [Example 70-12]” was tested. Which IC50 [2] did it give?
A: 0.0013 µM

Q: Which IC50 [1] does the source give for CN1CCN(C(=O)c2ccc3c(c2)[nH]c2c(C(N)=O)ccc(-c4c(F)cc(NC(=O)c5ccc(F)cc5)cc4F)c23)CC1 [Example 5-48] here?
A: 1.4 µM

Q: What does the source list for Cc1c(-c2ccc(C(N)=O)c3[nH]c4cc(C(O)CO)ccc4c23)cccc1-n1cnc2ccc(Cl)cc2c1=O (centres unmarked) [Example 70-14]?
A: IC50 [2]: 0.0009 µM; IC50 [1]: 0.014 µM

Q: Cc1c(-c2ccc(C(N)=O)c3[nH]c4cc(C(O)CO)ccc4c23)cccc1-n1cnc2ccc(F)cc2c1=O (centres unmarked) [Example 70-13] was tested. Which IC50 [2] did it give?
A: 0.0007 µM

Q: What about the IC50 [1] of the same molecule?
A: 0.011 µM

Q: For CN1CCN(C(=O)c2ccc3c(c2)[nH]c2c(C(N)=O)ccc(-c4cccc5[nH]c(C(=O)N6CCCC6)cc45)c23)CC1 [Example 3-75], which IC50 [2] is on record?
A: 0.92 µM

Q: Which IC50 [2] does the source give for Cc1ccc2c(c1)C(=O)N(c1cccc(-c3ccc(C(N)=O)c4[nH]c5cc(C(O)CO)ccc5c34)c1C)C2 (racemic) [Example 70-5, 7-((RS)-1,2-dihydroxyethyl)-4-(2-methyl-3-(6-methyl-1-oxoisoindolin-2-yl)phenyl)-9H-carbazole-1-carboxamide] here?
A: 0.0016 µM
